{"source": "patent US9140688B2", "about": "“Sperm staining and sorting methods” (INGURAN, LLC, priority 2011, dated 2015)", "key": {"[1]": {"system": "X- and Y-chromosome bearing bovine sperm stained with Hoechst 33342", "assay": "Split quality: height of peak divided by height of valley (PV), flow cytometry of stained bovine sperm", "format": "cell-based", "settings": "for Height of Peak/Height of Valley: Ex 5; for Height of Peak Divided by Height of Valley: Ex 7, Yellow 6 62 μM, Phenol Red 0 μM"}, "[2]": {"settings": "solvent water; shorter-wavelength local maximum; cited from earlier work"}, "[3]": {"system": "membrane compromised bovine sperm stained with Hoechst 33342", "assay": "Dead quenching: dead gate intensity divided by live gate intensity, flow cytometry of stained bovine sperm", "format": "cell-based", "settings": "for Dead Intensity (dead gate intensity divided by live gate intensity): Ex 5; for Intensity (dead gate): Ex 6, resulting pH 6.70, Hoechst 48 μM", "method_in_brief": "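Bovine sperm stained with Hoechst 33342 (48–64 μM effective) in pH 7.4 TALP at 34° C for 60 min, then mixed 1:1 with pH 5.60 TALP containing quenching dye and held ~30 min at room temperature. Read on a MoFlo SX sorter; value is dead gate intensity divided by live gate intensity as a percentage, lower meaning more quenching.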"}, "[4]": {"settings": "dye 25 μM, Average of 12 and 14 μL series"}, "[5]": {"settings": "dye 62.5 μM, Average of 12 and 14 μL series"}, "[6]": {"settings": "dye 62.5 μM, Hoechst 12 μL/2 mL"}, "[7]": {"settings": "dye 62.5 μM, Hoechst 14 μL/2 mL"}, "[8]": {"settings": "dye 62.5 μM, Hoechst 16 μL/2 mL"}, "[9]": {"settings": "dye 125 μM, Average of 12 and 14 μL series"}, "[10]": {"settings": "Ex 6, dye 62.5 μM, resulting pH 6.70, Hoechst 48 μM"}, "[11]": {"settings": "dye 25 μM, Average of Hoechst levels"}, "[12]": {"settings": "dye 62.5 μM, Average of Hoechst levels"}, "[13]": {"settings": "dye 125 μM, Average of Hoechst levels"}}}
{"smiles": "COc1cc(S(=O)(=O)O)c(C)cc1N=Nc1c(O)ccc2cc(S(=O)(=O)O)ccc12", "note": "[Red 40, 6-hydroxy-5-[(2-methoxy-5-methyl-4-sulfophenyl)azo]-2-naphthalenesulfonic acid, reference compound]", "values": [{"measurement": "Height of Peak/Height of Valley", "setting": "[1]; [4]", "value": 2.00}, {"measurement": "Height of Peak/Height of Valley", "setting": "[1]; dye 25 μM, Hoechst 12 μL/2 mL", "value": 2.05}, {"measurement": "Height of Peak/Height of Valley", "setting": "[1]; dye 25 μM, Hoechst 14 μL/2 mL", "value": 1.94}, {"measurement": "Height of Peak/Height of Valley", "setting": "[1]; dye 25 μM, Hoechst 16 μL/2 mL", "value": 1.00}, {"measurement": "Height of Peak/Height of Valley", "setting": "[1]; [5]", "value": 1.64}, {"measurement": "Height of Peak/Height of Valley", "setting": "[1]; [6]", "value": 1.65}, {"measurement": "Height of Peak/Height of Valley", "setting": "[1]; [7]", "value": 1.62}, {"measurement": "Height of Peak/Height of Valley", "setting": "[1]; [8]", "value": 1.00}, {"measurement": "Height of Peak/Height of Valley", "setting": "[1]; [9]", "value": 1.88}, {"measurement": "Height of Peak/Height of Valley", "setting": "[1]; dye 125 μM, Hoechst 12 μL/2 mL", "value": 1.75}, {"measurement": "Height of Peak/Height of Valley", "setting": "[1]; dye 125 μM, Hoechst 14 μL/2 mL", "value": 2.00}, {"measurement": "Height of Peak/Height of Valley", "setting": "[1]; dye 125 μM, Hoechst 16 μL/2 mL", "value": 1.21}, {"measurement": "PV", "setting": "[1]; [10]", "value": 1.00}, {"measurement": "PV", "setting": "[1]; Ex 8, Bull 1, Hoechst 60 μM, R40 20 μM alone", "value": 1.62}, {"measurement": "PV", "setting": "[1]; Ex 8, Bull 2, Hoechst 44 μM, R40 20 μM alone", "value": 1.54}, {"measurement": "PV", "setting": "[1]; Ex 9, Bull 3, Hoechst 60 μM, R40 50 μM, R3 0 μM", "value": 1.44}, {"measurement": "Expected Absorption Maxima", "setting": "[2]", "value": 505, "unit": "nm"}, {"measurement": "Dead Intensity (dead gate intensity divided by live gate intensity)", "setting": "[3]; [11]", "value": 68, "unit": "%"}, {"measurement": "Dead Intensity (dead gate intensity divided by live gate intensity)", "setting": "[3]; dye 25 μM, Hoechst 12 μL/2 mL", "value": 68, "unit": "%"}, {"measurement": "Dead Intensity (dead gate intensity divided by live gate intensity)", "setting": "[3]; dye 25 μM, Hoechst 14 μL/2 mL", "value": 72, "unit": "%"}, {"measurement": "Dead Intensity (dead gate intensity divided by live gate intensity)", "setting": "[3]; dye 25 μM, Hoechst 16 μL/2 mL", "value": 65, "unit": "%"}, {"measurement": "Dead Intensity (dead gate intensity divided by live gate intensity)", "setting": "[3]; [12]", "value": 52, "unit": "%"}, {"measurement": "Dead Intensity (dead gate intensity divided by live gate intensity)", "setting": "[3]; [6]", "value": 53, "unit": "%"}, {"measurement": "Dead Intensity (dead gate intensity divided by live gate intensity)", "setting": "[3]; [7]", "value": 53, "unit": "%"}, {"measurement": "Dead Intensity (dead gate intensity divided by live gate intensity)", "setting": "[3]; [8]", "value": 50, "unit": "%"}, {"measurement": "Dead Intensity (dead gate intensity divided by live gate intensity)", "setting": "[3]; [13]", "value": 38, "unit": "%"}, {"measurement": "Dead Intensity (dead gate intensity divided by live gate intensity)", "setting": "[3]; dye 125 μM, Hoechst 12 μL/2 mL", "value": 37, "unit": "%"}, {"measurement": "Dead Intensity (dead gate intensity divided by live gate intensity)", "setting": "[3]; dye 125 μM, Hoechst 14 μL/2 mL", "value": 41, "unit": "%"}, {"measurement": "Dead Intensity (dead gate intensity divided by live gate intensity)", "setting": "[3]; dye 125 μM, Hoechst 16 μL/2 mL", "value": 35, "unit": "%"}, {"measurement": "Intensity (dead gate)", "setting": "[3]; dye 62.5 μM", "value": 53, "unit": "%"}]}
{"smiles": "O=S(=O)([O-])c1ccc(N=Nc2c(O)ccc3cc(S(=O)(=O)[O-])ccc23)cc1.[Na+].[Na+]", "note": "[Yellow 6, Disodium 6-hydroxy-5-[(4-sulfophenyl)azo]-2-naphthalenesulfononate]", "values": [{"measurement": "Height of Peak/Height of Valley", "setting": "[1]; [4]", "value": 2.06}, {"measurement": "Height of Peak/Height of Valley", "setting": "[1]; dye 25 μM, Hoechst 12 μL/2 mL", "value": 2.05}, {"measurement": "Height of Peak/Height of Valley", "setting": "[1]; dye 25 μM, Hoechst 14 μL/2 mL", "value": 2.07}, {"measurement": "Height of Peak/Height of Valley", "setting": "[1]; dye 25 μM, Hoechst 16 μL/2 mL", "value": 1.13}, {"measurement": "Height of Peak/Height of Valley", "setting": "[1]; [5]", "value": 1.66}, {"measurement": "Height of Peak/Height of Valley", "setting": "[1]; [6]", "value": 1.70}, {"measurement": "Height of Peak/Height of Valley", "setting": "[1]; [7]", "value": 1.62}, {"measurement": "Height of Peak/Height of Valley", "setting": "[1]; [8]", "value": 1.00}, {"measurement": "Height of Peak/Height of Valley", "setting": "[1]; [9]", "value": 1.77}, {"measurement": "Height of Peak/Height of Valley", "setting": "[1]; dye 125 μM, Hoechst 12 μL/2 mL", "value": 1.73}, {"measurement": "Height of Peak/Height of Valley", "setting": "[1]; dye 125 μM, Hoechst 14 μL/2 mL", "value": 1.80}, {"measurement": "Height of Peak/Height of Valley", "setting": "[1]; dye 125 μM, Hoechst 16 μL/2 mL", "value": 1.26}, {"measurement": "PV", "setting": "[1]; [10]", "value": 1.00}, {"measurement": "Height of Peak Divided by Height of Valley", "setting": "[1]; cells 100 million per mL", "value": 1.26}, {"measurement": "Height of Peak Divided by Height of Valley", "setting": "[1]; cells 150 million per mL", "value": 1.30}, {"measurement": "Height of Peak Divided by Height of Valley", "setting": "[1]; cells 250 million per mL", "value": 1.25}, {"measurement": "Height of Peak Divided by Height of Valley", "setting": "[1]; cells 300 million per mL", "value": 1.23}, {"measurement": "PV", "setting": "[1]; Ex 8, Bull 1, Hoechst 44 μM, Y6 50 μM alone", "value": 1.20}, {"measurement": "PV", "setting": "[1]; Ex 8, Bull 1, Hoechst 60 μM, Y6 50 μM alone", "value": 1.39}, {"measurement": "PV", "setting": "[1]; Ex 8, Bull 2, Hoechst 28 μM, Y6 50 μM alone", "value": 1.64}, {"measurement": "PV", "setting": "[1]; Ex 8, Bull 2, Hoechst 44 μM, Y6 50 μM alone", "value": 1.35}, {"measurement": "PV", "setting": "[1]; Ex 8, Bull 2, Hoechst 60 μM, Y6 50 μM alone", "value": 1.35}, {"measurement": "PV", "setting": "[1]; Ex 8, Bull 2, Hoechst 60 μM, Y6 375 μM alone", "value": 1.72}, {"measurement": "PV", "setting": "[1]; Ex 9, Bull 3, Hoechst 60 μM, Y6 50 μM, R3 0 μM, first Y6 series", "value": 1.26}, {"measurement": "PV", "setting": "[1]; Ex 9, Bull 3, Hoechst 60 μM, Y6 50 μM, R3 0 μM, second Y6 series", "value": 1.32}, {"measurement": "Expected Absorption Maxima", "setting": "[2]", "value": 480, "unit": "nm"}, {"measurement": "Dead Intensity (dead gate intensity divided by live gate intensity)", "setting": "[3]; [11]", "value": 71, "unit": "%"}, {"measurement": "Dead Intensity (dead gate intensity divided by live gate intensity)", "setting": "[3]; dye 25 μM, Hoechst 12 μL/2 mL", "value": 68, "unit": "%"}, {"measurement": "Dead Intensity (dead gate intensity divided by live gate intensity)", "setting": "[3]; dye 25 μM, Hoechst 14 μL/2 mL", "value": 74, "unit": "%"}, {"measurement": "Dead Intensity (dead gate intensity divided by live gate intensity)", "setting": "[3]; dye 25 μM, Hoechst 16 μL/2 mL", "value": 70, "unit": "%"}, {"measurement": "Dead Intensity (dead gate intensity divided by live gate intensity)", "setting": "[3]; [12]", "value": 51, "unit": "%"}, {"measurement": "Dead Intensity (dead gate intensity divided by live gate intensity)", "setting": "[3]; [6]", "value": 50, "unit": "%"}, {"measurement": "Dead Intensity (dead gate intensity divided by live gate intensity)", "setting": "[3]; [7]", "value": 52, "unit": "%"}, {"measurement": "Dead Intensity (dead gate intensity divided by live gate intensity)", "setting": "[3]; [8]", "value": 52, "unit": "%"}, {"measurement": "Dead Intensity (dead gate intensity divided by live gate intensity)", "setting": "[3]; [13]", "value": 39, "unit": "%"}, {"measurement": "Dead Intensity (dead gate intensity divided by live gate intensity)", "setting": "[3]; dye 125 μM, Hoechst 12 μL/2 mL", "value": 37, "unit": "%"}, {"measurement": "Dead Intensity (dead gate intensity divided by live gate intensity)", "setting": "[3]; dye 125 μM, Hoechst 14 μL/2 mL", "value": 40, "unit": "%"}, {"measurement": "Dead Intensity (dead gate intensity divided by live gate intensity)", "setting": "[3]; dye 125 μM, Hoechst 16 μL/2 mL", "value": 40, "unit": "%"}, {"measurement": "Intensity (dead gate)", "setting": "[3]; dye 62.5 μM", "value": 50, "unit": "%"}, {"measurement": "quenching of the dead population compared to red food dye No. 40 (FIG. 3)", "setting": "[3]; three bulls, equal amounts of Hoechst 33342 and of dye", "value": "superior quenching"}]}
